In the assay the test system is LPS-induced TNFα in monocyte-derived macrophages. As to the kind of experiment: MdM assay: LPS-triggered TNFα (ELISA). The class given is cell-based, human. The settings on record: Macrophage; human MdM; LPS 200 ng/mL; supernatant after 20 h; inhibition of TNFα; read-out: TNFα EC50. Summed up:
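TNFα secretion quantified by streptavidin-HRP/luminol sandwich ELISA in supernatants collected 20 h after LPS (200 ng/mL). Macrophages derived from magnetically isolated human CD14+ monocytes were used at day 10, with compound added 1 h before LPS; final DMSO 0.2%.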
On the technique in general: An ELISA detects its analyte on a solid surface through an enzyme-linked reagent.

The EC50 is the concentration giving half of the maximal effect. Regarding `COc1cc(-c2cnc3cc(C4(F)COC4)ccn23)cc(OC(F)F)c1C(=O)N[C@@H]1C[C@@H]1F` [Cpd 224, 2-(difluoromethoxy)-N-[(1R,2S)-2-fluorocyclopropyl]-4-[7-(3-fluorooxetan-3-yl)imidazo[1,2-a]pyridin-3-yl]-6-methoxy-benzamide], the EC50 lay within 100 to 1000 nM. Turning to `COc1cc(-c2cnc3cc(C(C)(C)O)ccn23)cc(OC(F)F)c1C(=O)NC1CC1` [Cpd 35, N-cyclopropyl-2-(difluoromethoxy)-4-[7-(1-hydroxy-1-methyl-ethyl)imidazo[1,2-a]pyridin-3-yl]-6-methoxy-benzamide], the EC50 lay within 100 to 1000 nM. Consider `COc1cc(-c2cnn3cc(C4COC4)ccc23)cc(OC(F)F)c1C(=O)NC1CC1` [Cpd 216, N-cyclopropyl-2-(difluoromethoxy)-6-methoxy-4-[6-(oxetan-3-yl)pyrazolo[1,5-a]pyridin-3-yl]benzamide], for which the EC50 was 100 to 1000 nM.

For `COc1cc(-c2cnc3cc(C4(O)CCC4)ccn23)cc(OC(F)F)c1C(=O)NC1CC1` [Cpd 173, N-cyclopropyl-2-(difluoromethoxy)-4-[7-(1-hydroxycyclobutyl)imidazo[1,2-a]pyridin-3-yl]-6-methoxy-benzamide], the EC50 lay within 100 to 1000 nM. For `COc1cc(-c2cnn3cc(C(C)(C)O)ccc23)cc(OC(F)F)c1C(=O)N[C@@H]1C[C@@H]1F` [Cpd 227, 2-(difluoromethoxy)-N-[(1R,2S)-2-fluorocyclopropyl]-4-[6-(1-hydroxy-1-methyl-ethyl)pyrazolo[1,5-a]pyridin-3-yl]-6-methoxy-benzamide] the value was 100 to 1000 nM. Take `COc1cc(-c2cnc3cc(C(C)(C#N)CO)ccn23)cc(OC(F)F)c1C(=O)NC1CC1` (stereo not drawn) [Cpd 176, 4-[7-(1-cyano-2-hydroxy-1-methyl-ethyl)imidazo[1,2-a]pyridin-3-yl]-N-cyclopropyl-2-(difluoromethoxy)-6-methoxy-benzamide]: the EC50 is 1000 to 5000 nM. For `COc1cc(-c2cnc3cc(C(C)(C)CN)ccn23)cc(OC(F)F)c1C(=O)NC1CC1` [Cpd 93, 4-[7-(2-amino-1,1-dimethyl-ethyl)imidazo[1,2-a]pyridin-3-yl]-N-cyclopropyl-2-(difluoromethoxy)-6-methoxy-benzamide] the value was 1000 to 5000 nM. For `CCC(C)(C#N)c1ccn2c(-c3cc(OC)c(C(=O)NC4CC4)c(OC(F)F)c3)cnc2c1` (stereo not drawn) [Cpd 27, 4-[7-(1-cyano-1-methyl-propyl)imidazo[1,2-a]pyridin-3-yl]-N-cyclopropyl-2-(difluoromethoxy)-6-methoxy-benzamide], the EC50 lay in the range of 100 to 1000 nM.

For `COc1cc(-c2cnn3cc(C4(C#N)CCOCC4)ccc23)cc(OC(F)F)c1C(=O)NC1CC1` [Cpd 237, 4-[6-(4-cyanotetrahydropyran-4-yl)pyrazolo[1,5-a]pyridin-3-yl]-N-cyclopropyl-2-(difluoromethoxy)-6-methoxy-benzamide], the EC50 is 1000 to 5000 nM. Turning to `COc1cc(-c2cnc3cc(C4(C#N)CCOCC4)ccn23)cc(OC(F)F)c1C(=O)NC1CC1` [Cpd 116, 4-[7-(4-cyanotetrahydropyran-4-yl)imidazo[1,2-a]pyridin-3-yl]-N-cyclopropyl-2-(difluoromethoxy)-6-methoxy-benzamide], the EC50 was 1000 to 5000 nM.

Turning to `COc1cc(-c2cnc3cc(C(C)(C)CO)ccn23)cc(OC(F)F)c1C(=O)NC1CC1` [Cpd 150, N-cyclopropyl-2-(difluoromethoxy)-4-[7-(2-hydroxy-1,1-dimethyl-ethyl)imidazo[1,2-a]pyridin-3-yl]-6-methoxy-benzamide], the concentration giving a half-maximal response (EC50) fell in the range of 100 to 1000 nM. Take `COc1cc(-c2cnn3cc(C(C)(C)COS(C)(=O)=O)ccc23)cc(OC(F)F)c1C(=O)N[C@@H]1C[C@@H]1F` [Cpd 267, [2-[3-[3-(difluoromethoxy)-4-[[(1R,2S)-2-fluorocyclopropyl]carbamoyl]-5-methoxy-phenyl]pyrazolo[1,5-a]pyridin-6-yl]-2-methyl-propyl]methanesulfonate]: the 50% effective concentration (EC50) is 100 to 1000 nM.

The values above are taken from patent US12391679B2, “Benzamide-substituted bicyclic imidazo- and pyrazolo-fused -pyridine, -pyrimide, and -pyridazine compounds for treatment of inflammatory diseases” (ONCO3R Therapeutics BV, priority 2019, dated 2025).
